Data on four compounds can be found in patent US6482411B1, “Methods of reducing bone loss with CD40 ligand” (Board of Regents, The University of Texas System, priority 1999, dated 2002).

Marks after values point to notes of the source that are not given here.

One series deals with MLO-Y4 cells. Nature of the series: FACS staining for Annexin V/propidium iodide in MLO-Y4 cells. It counts as cell-based, murine. The conditions noted are these: CD40L pretreatment 15 min where given, then dexamethasone or TNFα for 6 h. On the procedure: (§1) The MLO-Y4 cells were pretreated with CD40L (0.5-1.5 μg/ml) for 15 mins. followed by treatment with either dexamethasone at 10^−6 M (10^−7M in earlier studies), TNFα at 1 ng/ml or etoposide at 50 μM for 6 hrs. The cells were cultured in 2.5% FBS/2.5% CS in α-MEM, 5% CO2, 37° C.
FACS Staining for Annexin V/Propidium Iodide: In early stages of apoptosis the cells lose membrane asymmetry and translocate the membrane phospholipid phosphatidylserine to the outer leaflet of the plasma membrane, where it can be detected by its high affinity binding to annexin V (Rillema, 1998). Annexin V is a calcium-dependent phospholipid-binding protein that has a high affinity for phosphatidylserine. Prolonged apoptosis can cause cell death and these non-viable cells stain positive for vital dye Propidium Iodide (PI) as well as Annexin V. Apoptotic cells stain Annexin V positive and Propidium iodide negative.
The staining protocol includes washing single cell suspension twice with PBS and resuspending in 1×binding buffer (0.1 M HEPES/NaOH, pH 7.4; […]; 25 mM CaCl2) at a concentration of one million cells/ml. The cells are aliquoted (100 μl) in polypropylene tubes, incubated with annexin V FITC (5 μl) and propidium iodide (10 μl) for 15 minutes at 4° C. in the dark, and analyzed by flow cytometry within 1 hour. […]

The test system of series [1] is MLO-Y4 cells stably transduced with nuclear GFP. Nature of the series: GFP nuclear stain apoptosis assay in MLO-Y4 cells. The conditions noted are these: CD40L pretreatment 15 min where given, then dexamethasone, TNFα or etoposide 50 μM for 6 h. It is filed as cell-based, murine. Here is the method: as §1
GFP Nuclear Stain: Visualization of morphological features of apoptosis in the nucleus of the cells, such as chromatin condensation and nuclear fragmentation, was determined in this assay. During apoptosis the nucleus becomes shrunken and pyknotic as a result of DNA degradation. MLO-Y4 cells were stably transduced with a retroviral vector carrying the green fluorescent protein (GFP) CDNA with a nuclear localization sequence designed to target the GFP to the nucleus (Plotkin et al., 1998). […] At least 500 cells from fields selected by systematic random ampling were examined for each condition (Plotkinn et al., 1999; Jilka et al., 1999).

The test system of series [2] is MLO-Y4 osteocytic cell line. The experiment in a line: Trypan blue exclusion (cell death) in MLO-Y4 cells. It is filed as cell-based, murine. The note with it: CD40L pretreatment 15 min where given, then dexamethasone 10^-6 M (10^-7 M earlier), TNFα or etoposide 50 μM for 6 h. On the procedure:
The MLO-[…][…] (0.5-1.5 μg/ml) for 15 mins. followed by treatment with either dexamethasone at 10^-6 M (10^-7M in earlier studies), TNFα at 1 ng/ml or etoposide at 50 μM for 6 hrs. […] Trypan Blue Exclusion: Staining of cultured cells with vital dyes such as trypan blue is commonly used approach to quantify cell death. This is based on the premise that viable cells with intact membranes will exclude specific dyes such as trypan blue, which can easily be quantified under light microscopy ([…], 1998). The percentage of trypan blue positive cells in each culture condition was used to calculate cell survival. This method is […] for screening multiple samples or treatment conditions, but can underestimate cell death since membrane integrity can be intact until late in apoptosis. Trypan vital dye staining is not specific for apoptosis and will also stain necrotic cells. This was confirmed by additional analysis discussed below. Apoptosis of MLO-Y4 or calvaria cells was quantified by trypan blue staining (Jilka et al., 1998). Nonadherent cells were combined with adherent cells released from the culture dish using trypsin-EDTA, resuspended in medium containing serum, and collected by centrifugation. […] At least 100 cells per condition were counted. Trypan vital dye staining is not specific for apoptosis and will also stain necrotic cells. […]

For series [3] the following is noted: approximately 2,000 women randomized; cited from earlier work.
For series [4] the following is noted: cited from earlier work.

In the case of `C[C@@H]1C[C@H]2[C@@H]3CCC4=CC(=O)C=C[C@]4(C)[C@@]3(F)[C@@H](O)C[C@]2(C)[C@@]1(O)C(=O)CO` [Dex, dexamethasone], the “Annexin V, percent positive cells (apoptotic)” value in the series with MLO-Y4 cells stood at 23.7 ± 1.6%. Moreover, the “GFP, percent positive cells (apoptotic)” value in series [1] is on record as 24.0* percent. Also, in series [2], the “Trypan Blue, percent positive cells (dead)” value stood at 13.7 ± 1.4%.
As to `NCCCC(O)(P(=O)(O)O)P(=O)(O)O` [alendronate], the “women with vertebra fractures versus placebo” value in series [3] is reported as “significantly fewer”.
In the case of `COc1cc([C@@H]2c3cc4c(cc3[C@@H](O[C@@H]3O[C@@H]5CO[C@@H](C)O[C@H]5[C@H](O)[C@H]3O)[C@H]3COC(=O)[C@H]23)OCO4)cc(OC)c1O` [Etoposide, etoposide], the “GFP, percent positive cells (apoptotic)” value in series [1] is recorded as 15.9* percent. For the same compound, in series [2], the “Trypan Blue, percent positive cells (dead)” value was determined as 15.8 ± 2.0%.
Consider `O=C(c1ccc(OCCN2CCCCC2)cc1)c1c(-c2ccc(O)cc2)sc2cc(O)ccc12` [raloxifene], for which the “proportion of women reporting hot flashes” value in series [4] (60 mg raloxifene daily, placebo 22.7%, no significant difference) is given as 26.3%. In addition, in series [4] (over 600 menopausal women), the endometrial proliferation entry is recorded as “without inducing endometrial proliferation”.
